# Test results from patent US5807985A, “Oligopeptide compounds containing D-2-alkyltryptophan capable of promoting the release of growth hormone” (priority 1997, dated 1998).
# Where two headings read alike, the source gives them in different places. Peptide text beside a SMILES is read from it.
# How the values were obtained:
# [1] = molecular target: Human hypothalamus tissue; test: Inhibition of 125I-Tyr-Ala-HEXARELIN binding to human hypothalamus tissue membranes; settings: for IC50: human hypothalamus tissue; for percent of inhibition of 125I-Tyr-Ala-HEXARELIN specifically bound / specific binding of 125I-Tyr-Ala-HEXARELIN/0.1 mg membrane protein: hypothalamus
# Protocol: (§1) The peptides of Examples 3 and 6 were further studied for inhibition of ^125 I--Tyr--Ala--HEXARELIN binding to human tissue. HEXARELIN is His--D--Mrp--Ala--Trp--D--Phe--Lys--NH2 where Mrp is 2-methyltryptophan.
# (§2) Tissue membranes (0.1 mg protein) obtained from the heart and hypothalamus of two different adult subjects were incubated in triplicate with a subsaturating concentration (34 pM, about 48,000 cpm, for heart tissue and 42 pM, about 60,000 cpm, for hypothalamus tissue) of ^125 I--Tyr--Ala--HEXARELIN for 40 min at 0° C. in the absence and in the presence of increasing concentrations of the indicated unlabelled peptides. The value in parentheses represents the percent of inhibition of ^125 1I--Tyr--Ala--HEXARELIN specifically bound.
# (§3) The specific binding of ^125 I--Tyr--Ala--HEXARELIN/0.1 mg membrane protein is expressed as a percent of total radioactivity added.
# Human heart tissue = test: Inhibition of 125I-Tyr-Ala-HEXARELIN binding to human heart tissue membranes; settings: for percent of inhibition of 125I-Tyr-Ala-HEXARELIN specifically bound / specific binding of 125I-Tyr-Ala-HEXARELIN/0.1 mg membrane protein: heart; for IC50: human heart tissue
# Protocol: as §1, §2, §3
# [2] = mean of subjects 1 and 2, read-out: mean IC50 value
# [3] = subject 1, read-out: IC50 value
# [4] = subject 2, read-out: IC50 value
smiles,measurement,setting,value
"Cc1[nH]c2ccccc2c1C[C@@H](NC(=O)[C@@H](N)Cc1cnc[nH]1)C(=O)N[C@@H](C)C(=O)N[C@@H](Cc1c[nH]c2ccccc12)C(=O)N[C@H](Cc1ccccc1)C(=O)N[C@@H](CCCCN)C(N)=O [HEXARELIN, His--D--Mrp--Ala--Trp--D--Phe--Lys--NH2] (HELM PEPTIDE1{H.[Cc1[nH]c2ccccc2c1C[C@@H](N[*:1])C(=O)[*:2]].A.W.[dF].K.[am]}$$$$V2.0)",IC50,[1]; [2],7 nM
same,IC50,[1]; [3],8.9 nM
same,IC50,[1]; [4],5 nM
same,percent of inhibition of 125I-Tyr-Ala-HEXARELIN specifically bound,"[1]; 0.1 nM peptide, subject 1",3%
same,specific binding of 125I-Tyr-Ala-HEXARELIN/0.1 mg membrane protein,"[1]; 0.1 nM peptide, subject 1",10.7% of total radioactivity
same,percent of inhibition of 125I-Tyr-Ala-HEXARELIN specifically bound,"[1]; 0.1 nM peptide, subject 2",4%
same,specific binding of 125I-Tyr-Ala-HEXARELIN/0.1 mg membrane protein,"[1]; 0.1 nM peptide, subject 2",9.1% of total radioactivity
same,percent of inhibition of 125I-Tyr-Ala-HEXARELIN specifically bound,"[1]; 1 nM peptide, subject 1",16%
same,specific binding of 125I-Tyr-Ala-HEXARELIN/0.1 mg membrane protein,"[1]; 1 nM peptide, subject 1",9.6% of total radioactivity
same,percent of inhibition of 125I-Tyr-Ala-HEXARELIN specifically bound,"[1]; 1 nM peptide, subject 2",19%
same,specific binding of 125I-Tyr-Ala-HEXARELIN/0.1 mg membrane protein,"[1]; 1 nM peptide, subject 2",7.7% of total radioactivity
same,percent of inhibition of 125I-Tyr-Ala-HEXARELIN specifically bound,"[1]; 10 nM peptide, subject 1",51%
same,specific binding of 125I-Tyr-Ala-HEXARELIN/0.1 mg membrane protein,"[1]; 10 nM peptide, subject 1",5.2% of total radioactivity
same,percent of inhibition of 125I-Tyr-Ala-HEXARELIN specifically bound,"[1]; 10 nM peptide, subject 2",67%
same,specific binding of 125I-Tyr-Ala-HEXARELIN/0.1 mg membrane protein,"[1]; 10 nM peptide, subject 2",3.1% of total radioactivity
same,percent of inhibition of 125I-Tyr-Ala-HEXARELIN specifically bound,"[1]; 100 nM peptide, subject 1",89%
same,specific binding of 125I-Tyr-Ala-HEXARELIN/0.1 mg membrane protein,"[1]; 100 nM peptide, subject 1",1.2% of total radioactivity
same,percent of inhibition of 125I-Tyr-Ala-HEXARELIN specifically bound,"[1]; 100 nM peptide, subject 2",93%
same,specific binding of 125I-Tyr-Ala-HEXARELIN/0.1 mg membrane protein,"[1]; 100 nM peptide, subject 2",0.7% of total radioactivity
same,percent of inhibition of 125I-Tyr-Ala-HEXARELIN specifically bound,"[1]; 1000 nM peptide, subject 1",100%
same,specific binding of 125I-Tyr-Ala-HEXARELIN/0.1 mg membrane protein,"[1]; 1000 nM peptide, subject 1",0% of total radioactivity
same,percent of inhibition of 125I-Tyr-Ala-HEXARELIN specifically bound,"[1]; 1000 nM peptide, subject 2",100%
same,specific binding of 125I-Tyr-Ala-HEXARELIN/0.1 mg membrane protein,"[1]; 1000 nM peptide, subject 2",0% of total radioactivity
same,percent of inhibition of 125I-Tyr-Ala-HEXARELIN specifically bound,"Human heart tissue; 0.1 nM peptide, subject 1",4%
same,specific binding of 125I-Tyr-Ala-HEXARELIN/0.1 mg membrane protein,"Human heart tissue; 0.1 nM peptide, subject 1",20.1% of total radioactivity
same,percent of inhibition of 125I-Tyr-Ala-HEXARELIN specifically bound,"Human heart tissue; 0.1 nM peptide, subject 2",5%
same,specific binding of 125I-Tyr-Ala-HEXARELIN/0.1 mg membrane protein,"Human heart tissue; 0.1 nM peptide, subject 2",22.8% of total radioactivity
same,percent of inhibition of 125I-Tyr-Ala-HEXARELIN specifically bound,"Human heart tissue; 1 nM peptide, subject 1",20%
same,specific binding of 125I-Tyr-Ala-HEXARELIN/0.1 mg membrane protein,"Human heart tissue; 1 nM peptide, subject 1",16.9% of total radioactivity
same,percent of inhibition of 125I-Tyr-Ala-HEXARELIN specifically bound,"Human heart tissue; 1 nM peptide, subject 2",28%
same,specific binding of 125I-Tyr-Ala-HEXARELIN/0.1 mg membrane protein,"Human heart tissue; 1 nM peptide, subject 2",17.3% of total radioactivity
same,percent of inhibition of 125I-Tyr-Ala-HEXARELIN specifically bound,"Human heart tissue; 10 nM peptide, subject 1",51%
same,specific binding of 125I-Tyr-Ala-HEXARELIN/0.1 mg membrane protein,"Human heart tissue; 10 nM peptide, subject 1",10.4% of total radioactivity
same,percent of inhibition of 125I-Tyr-Ala-HEXARELIN specifically bound,"Human heart tissue; 10 nM peptide, subject 2",56%
same,specific binding of 125I-Tyr-Ala-HEXARELIN/0.1 mg membrane protein,"Human heart tissue; 10 nM peptide, subject 2",10.5% of total radioactivity
same,percent of inhibition of 125I-Tyr-Ala-HEXARELIN specifically bound,"Human heart tissue; 100 nM peptide, subject 1",92%
same,specific binding of 125I-Tyr-Ala-HEXARELIN/0.1 mg membrane protein,"Human heart tissue; 100 nM peptide, subject 1",1.7% of total radioactivity
same,percent of inhibition of 125I-Tyr-Ala-HEXARELIN specifically bound,"Human heart tissue; 100 nM peptide, subject 2",90%
same,specific binding of 125I-Tyr-Ala-HEXARELIN/0.1 mg membrane protein,"Human heart tissue; 100 nM peptide, subject 2",2.4% of total radioactivity
same,percent of inhibition of 125I-Tyr-Ala-HEXARELIN specifically bound,"Human heart tissue; 1000 nM peptide, subject 1",100%
same,specific binding of 125I-Tyr-Ala-HEXARELIN/0.1 mg membrane protein,"Human heart tissue; 1000 nM peptide, subject 1",0% of total radioactivity
same,percent of inhibition of 125I-Tyr-Ala-HEXARELIN specifically bound,"Human heart tissue; 1000 nM peptide, subject 2",100%
same,specific binding of 125I-Tyr-Ala-HEXARELIN/0.1 mg membrane protein,"Human heart tissue; 1000 nM peptide, subject 2",0% of total radioactivity
same,IC50,Human heart tissue; [2],9.5 nM
same,IC50,Human heart tissue; [3],10.6 nM
same,IC50,Human heart tissue; [4],8.3 nM
